The text below walks through data of patent US9340530B2, “Preparation and use of bicyclic himbacine derivatives as PAR-1 receptor antagonists” (Merck, Sharp & Dohme Corp., priority 2012, dated 2016).

As a reminder, the IC50 is the point on the concentration scale where inhibition reaches its midpoint.

Chain of PAR1 (P25116 22-425): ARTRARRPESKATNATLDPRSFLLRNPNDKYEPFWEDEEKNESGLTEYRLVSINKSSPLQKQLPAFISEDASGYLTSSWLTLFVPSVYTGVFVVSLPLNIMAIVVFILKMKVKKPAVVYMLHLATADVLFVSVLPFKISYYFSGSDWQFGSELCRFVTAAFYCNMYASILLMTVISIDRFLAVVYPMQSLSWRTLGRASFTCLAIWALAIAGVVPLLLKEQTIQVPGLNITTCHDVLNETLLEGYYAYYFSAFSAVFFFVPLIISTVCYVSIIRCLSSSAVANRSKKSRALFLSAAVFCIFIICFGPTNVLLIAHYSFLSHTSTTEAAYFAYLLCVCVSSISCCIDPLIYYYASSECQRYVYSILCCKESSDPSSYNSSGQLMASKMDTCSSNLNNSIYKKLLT

This experiment addresses PAR1 (Homo sapiens (Human), UniProt P25116). The experiment in a line: Par-1 FLIPR assay (calcium, HEK 293 cells, PAR1 activating peptide). Type of experiment: cell-based. The conditions noted are these: PAR1 selective receptor-activating peptide at 80% activation. On the procedure:
HEK 293 Cells were grown in media containing DMEM, 10% FBS pen/strep/L-Glutamine and non-essential amino acids. The cells were plated in 384-well PDL coated plates at 12000 cells/well and incubated overnight at 37° C./5% CO2. Media was then removed from the cells, which were then incubated with buffer (Hank's containing HEPES and Chaps) containing FLIPR calcium-5 dye, made with buffer containing probenecid, for 60 minutes at 37° C. Varying concentrations of compound in a final concentration of 5% DMSO were then added to the cells and incubated at 25° C. for 30 minutes. […] The FLIPR reads at an excitation wavelength of 480 nm and an emission wavelength of 535 nm, and performs 60 scans over a 1-2 min reading time. The data were analyzed by taking the peak signal over a portion of the range of the 60 scans and dividing this signal by the minimum signal for that same range.
Turning to `C[C@H]1OC(=O)[C@]2(C(O)c3ncco3)CC(F)(F)[C@@H](C)[C@H](/C=C/c3ccc(-c4ccccc4C#N)cn3)[C@H]12` (single isomer, unassigned) [Example 23a], the IC50 was 3.1 nM.
Turning to `C[C@H]1OC(=O)[C@]2(C(O)c3ncco3)CC(F)(F)[C@@H](C)[C@H](/C=C/c3ccc(-c4ccccc4C#N)cn3)[C@H]12` (single isomer, unassigned) [Example 23b], the IC50 is 1.2 nM.
For `C[C@H]1OC(=O)[C@@H]2CC(F)(F)[C@@H](C)[C@H](/C=C/c3ccc(-c4ccccc4C#N)cn3)[C@H]12` [Example 1] the value was 1.6 nM; for `C[C@H]1OC(=O)C2CC(F)(F)[C@@H](C)[C@H](/C=C/c3ccc(-c4ccccc4Cl)cn3)C21` (stereo partly drawn) [Example 4], 2.7 nM; for `C[C@H]1OC(=O)C2CC(F)(F)[C@@H](C)[C@H](/C=C/c3ccc(-c4ccccc4OC(F)(F)F)cn3)C21` (stereo partly drawn) [Example 5], 4.7 nM.
For `C[C@H]1OC(=O)[C@]2(N)CC(F)(F)[C@@H](C)[C@H](/C=C/c3ccc(-c4ccccc4C#N)cn3)[C@H]12` [Example 7] the value was 7.2 nM.
For `C[C@H]1OC(=O)[C@]2(O)CC(F)(F)[C@@H](C)[C@H](/C=C/c3ccc(-c4ccccc4C#N)cn3)[C@H]12` [Example 8] the value was 2 nM; for `C[C@H]1OC(=O)[C@]2(O)CC(F)(F)[C@@H](C)[C@H](/C=C/c3ccc(-c4ccccc4OC(F)(F)F)cn3)[C@H]12` [Example 9], 4.5 nM.
Consider `COC(=O)[C@@]12CC(F)(F)[C@@H](C)[C@H](/C=C/c3ccc(-c4cccc(F)c4)cn3)[C@@H]1[C@@H](C)OC2=O` [Example 11], for which the IC50 is 3.4 nM.
For `C[C@H]1OC(=O)[C@]2(C(=O)O)CC(F)(F)[C@@H](C)[C@H](/C=C/c3ccc(-c4cccc(F)c4)cn3)[C@H]12` [Example 12] the value was 10.9 nM; for `C[C@H]1OC(=O)[C@]2(CO)CC(F)(F)[C@@H](C)[C@H](/C=C/c3ccc(-c4ccccc4C#N)cn3)[C@H]12` [Example 15], 2.7 nM.
For `C[C@H]1OC(=O)[C@]2(C(=O)NC3CCC3)CC(F)(F)[C@@H](C)[C@H](/C=C/c3ccc(-c4ccccc4C#N)cn3)[C@H]12` [Example 18] the value was 3.3 nM.
`C[C@H]1OC(=O)[C@]2(C(O)c3ccccn3)CC(F)(F)[C@@H](C)[C@H](/C=C/c3ccc(-c4ccccc4C#N)cn3)[C@H]12` (stereo partly drawn) [Example 19]: the IC50 came out at 3 nM.
For `CC1[C@H](/C=C/c2ccc(-c3ccccc3C#N)cn2)C2[C@@H](C)OC(=O)[C@]2(C(O)c2cscn2)CC1(F)F` (stereo partly drawn) [Example 20a] the value was 0.9 nM; for `C[C@H]1OC(=O)[C@]2(C(O)c3cscn3)CC(F)(F)[C@@H](C)[C@H](/C=C/c3ccc(-c4ccccc4C#N)cn3)[C@H]12` (stereo partly drawn) [Example 20b], 1.2 nM.
For `CC1[C@H](/C=C/c2ccc(-c3ccccc3C#N)cn2)C2[C@@H](C)OC(=O)[C@]2(C(O)c2nccs2)CC1(F)F` (stereo partly drawn) [Example 21a] the value was 2.5 nM.
For `C[C@H]1OC(=O)[C@]2(C(O)c3nccs3)CC(F)(F)[C@@H](C)[C@H](/C=C/c3ccc(-c4ccccc4C#N)cn3)[C@H]12` (stereo partly drawn) [Example 21b] the value was 1.2 nM; for `CC1[C@H](/C=C/c2ccc(-c3ccccc3C#N)cn2)C2[C@@H](C)OC(=O)[C@]2(C(O)c2cocn2)CC1(F)F` (stereo partly drawn) [Example 22a], 1.9 nM.
With `C[C@H]1OC(=O)[C@]2(C(O)c3cocn3)CC(F)(F)[C@@H](C)[C@H](/C=C/c3ccc(-c4ccccc4C#N)cn3)[C@H]12` (stereo partly drawn) [Example 22b], the IC50 came to 2.2 nM.
`C[C@H]1OC(=O)[C@]2(C3(O)CNC3)CC(F)(F)[C@@H](C)[C@H](/C=C/c3ccc(-c4ccccc4C#N)cn3)[C@H]12` [Example 24]: the IC50 was determined as 40.7 nM.
For `C[C@H]1OC(=O)[C@]2(CC#N)CC(F)(F)[C@@H](C)[C@H](/C=C/c3ccc(-c4ccccc4Cl)cn3)[C@H]12` [Example 25] the value was 3.3 nM; for `C[C@H]1OC(=O)[C@]2(Cc3ncon3)CC(F)(F)[C@@H](C)[C@H](/C=C/c3ccc(-c4ccccc4Cl)cn3)[C@H]12` [Example 26], 1.2 nM.
For `Cc1nnc(C[C@@]23CC(F)(F)[C@@H](C)[C@H](/C=C/c4ccc(-c5ccccc5Cl)cn4)[C@@H]2[C@@H](C)OC3=O)o1` [Example 28] the value was 0.9 nM.
For `C[C@H]1OC(=O)[C@]2(Cc3nnn(C)n3)CC(F)(F)[C@@H](C)[C@H](/C=C/c3ccc(-c4ccccc4Cl)cn3)C12` (stereo partly drawn) [Example 29a] the value was 2.1 nM; for `Cc1cn([C@@]23CC(F)(F)[C@@H](C)[C@H](/C=C/c4ccc(-c5ccccc5C#N)cn4)[C@@H]2[C@@H](C)OC3=O)nn1` [Example 32], 1.4 nM.
As for `Cc1nnnn1[C@@]12CC(F)(F)[C@@H](C)[C@H](/C=C/c3ccc(-c4ccccc4C#N)cn3)[C@@H]1[C@@H](C)OC2=O` [Example 34], the half-maximal inhibitory concentration (IC50) is 6.4 nM.
Take `C[C@H]1OC(=O)[C@]2(NC3CCC3)CC(F)(F)[C@@H](C)[C@H](/C=C/c3ccc(-c4ccccc4C#N)cn3)[C@H]12` [Example 36]: the IC50 was 4.1 nM.
For `C[C@H]1OC(=O)[C@]2(N(C)C)CC(F)(F)[C@@H](C)[C@H](/C=C/c3ccc(-c4ccccc4C#N)cn3)[C@H]12` [Example 37] the value was 5.3 nM.
`CC1[C@H](/C=C/c2ccc(-c3ccccc3C#N)cn2)C2[C@@H](C)OC(=O)[C@]2(NCc2cccnc2)CC1(F)F` (stereo partly drawn) [Example 38]: the IC50 is 4.7 nM.
For `CC1[C@H](/C=C/c2ccc(-c3ccccc3C#N)cn2)C2[C@@H](C)OC(=O)[C@]2(NCc2nccs2)CC1(F)F` (stereo partly drawn) [Example 39], the IC50 stood at 2.2 nM.
For `CC1[C@H](/C=C/c2ccc(-c3ccccc3C#N)cn2)C2[C@@H](C)OC(=O)[C@]2(NCc2ccncc2)CC1(F)F` (stereo partly drawn) [Example 40] the value was 3.9 nM.
For `CC1[C@H](/C=C/c2ccc(-c3ccccc3C#N)cn2)C2[C@@H](C)OC(=O)[C@]2(NCc2ncco2)CC1(F)F` (stereo partly drawn) [Example 41] the value was 6.5 nM; for `CC1[C@H](/C=C/c2ccc(-c3ccccc3C#N)cn2)C2[C@@H](C)OC(=O)[C@]2(NCc2cocn2)CC1(F)F` (stereo partly drawn) [Example 42], 2.4 nM; for `C[C@H]1OC(=O)[C@]2(NCc3cncs3)CC(F)(F)[C@@H](C)[C@H](/C=C/c3ccc(-c4ccccc4C#N)cn3)[C@H]12` [Example 43], 1.3 nM.
For `C[C@H]1OC(=O)[C@]2(NCc3cscn3)CC(F)(F)[C@@H](C)[C@H](/C=C/c3ccc(-c4ccccc4C#N)cn3)[C@H]12` [Example 44] the value was 1.6 nM.
With `C[C@H]1OC(=O)[C@]2(NCc3cnccn3)CC(F)(F)[C@@H](C)[C@H](/C=C/c3ccc(-c4ccccc4C#N)cn3)[C@H]12` [Example 45], the IC50 was 4.4 nM.
For `C[C@H]1OC(=O)[C@]2(NCc3ccccn3)CC(F)(F)[C@@H](C)[C@H](/C=C/c3ccc(-c4ccccc4C#N)cn3)[C@H]12` [Example 46] the value was 3.1 nM; for `C[C@H]1OC(=O)[C@]2(NCc3cncnc3)CC(F)(F)[C@@H](C)[C@H](/C=C/c3ccc(-c4ccccc4C#N)cn3)[C@H]12` [Example 47], 5.7 nM; for `C[C@H]1OC(=O)[C@]2(NCc3nccn3C)CC(F)(F)[C@@H](C)[C@H](/C=C/c3ccc(-c4ccccc4C#N)cn3)[C@H]12` [Example 48], 3 nM.
For `C[C@H]1OC(=O)[C@]2(NC3COC3)CC(F)(F)[C@@H](C)[C@H](/C=C/c3ccc(-c4ccccc4C#N)cn3)[C@H]12` [Example 49] the value was 10.4 nM.
For `C[C@H]1OC(=O)[C@]2(NCC3CC3)CC(F)(F)[C@@H](C)[C@H](/C=C/c3ccc(-c4ccccc4C#N)cn3)[C@H]12` [Example 50] the value was 2.7 nM; for `C[C@H]1OC(=O)[C@]2(NCC(C)(C)C)CC(F)(F)[C@@H](C)[C@H](/C=C/c3ccc(-c4ccccc4C#N)cn3)[C@H]12` [Example 51], 10.2 nM.
On to `C[C@H]1OC(=O)[C@]2(NCC(O)CCl)CC(F)(F)[C@@H](C)[C@H](/C=C/c3ccc(-c4ccccc4C#N)cn3)[C@H]12` (stereo partly drawn) [Example 52], for which the IC50 is 4.3 nM.
Regarding `CC(=O)N[C@@]12CC(F)(F)[C@@H](C)[C@H](/C=C/c3ccc(-c4ccccc4C#N)cn3)[C@@H]1[C@@H](C)OC2=O` [Example 53], the half-inhibitory concentration (IC50) was determined as 26 nM.
For `C[C@H]1OC(=O)[C@]2(NC(=O)NC3CCC3)CC(F)(F)[C@@H](C)[C@H](/C=C/c3ccc(-c4ccccc4C#N)cn3)[C@H]12` [Example 54] the value was 7.1 nM; for `C[C@H]1OC(=O)[C@]2(NC(=O)c3nccs3)CC(F)(F)[C@@H](C)[C@H](/C=C/c3ccc(-c4ccccc4C#N)cn3)[C@H]12` [Example 57], 2.8 nM.
For `C[C@H]1OC(=O)[C@]2(NC(=O)c3cccc(F)c3)CC(F)(F)[C@@H](C)[C@H](/C=C/c3ccc(-c4ccccc4C#N)cn3)[C@H]12` [Example 58] the value was 3 nM; for `C[C@H]1OC(=O)[C@]2(NC(=O)c3ccc(Cl)nc3)CC(F)(F)[C@@H](C)[C@H](/C=C/c3ccc(-c4ccccc4C#N)cn3)[C@H]12` [Example 59], 3 nM; for `Cc1cc(C(=O)N[C@@]23CC(F)(F)[C@@H](C)[C@H](/C=C/c4ccc(-c5ccccc5C#N)cn4)[C@@H]2[C@@H](C)OC3=O)no1` [Example 60], 3.4 nM.
For `Cc1oncc1C(=O)N[C@@]12CC(F)(F)[C@@H](C)[C@H](/C=C/c3ccc(-c4ccccc4C#N)cn3)[C@@H]1[C@@H](C)OC2=O` [Example 61] the value was 33.3 nM; for `C[C@@H]1[C@H](/C=C/c2ccc(-c3ccccc3C#N)cn2)[C@H]2[C@@H](C)OC(=O)[C@]2(NC(=O)c2ccc(F)cc2)CC1(F)F` [Example 62], 1.7 nM.
